Measurements published in ChEMBL document CHEMBL5244200, “MicroRNAs as novel endogenous targets for regulation and therapeutic treatments” (Medchemcomm, 2018).

Columns and labels:
[1] = Induction of human MDA-MB-231 cells assessed as induces increasing in apoptotic rate by western blot analysis relative to control; assay type: functional
[2] = system: pre-miR-544 (human); test: Effect on pre-miR-544 in human MCF-10A cells assessed as fold increasing level
[3] = system: miR-544 (human); test: Effect on miR-544 in human MCF-10A cells assessed as reduction in expression level relative to control; set-up: scale not given: the % may be the effect or the level left
[4] = Activation of miRNA (unknown origin)
[5] = system: HCT-116; test: Antiproliferative activity against human HCT-116 cells assessed as reduction in cell viability measured after 72 hrs by MTT assay; assay type: functional, cell-based; conditions: HCT-116, 72 h
[6] = system: MCF7; test: Inhibition of miR-27a (unknown origin) transfected in human MCF7 cells assessed as fold increase at 20 uM by luciferase assay; assay type: cell-based
[7] = Inhibition of miR-122 (unknown origin)
[8] = Inhibition of mature miR-122 (unknown origin) at 10 uM relative to control
[9] = system: Hepatitis C virus; test: Antiviral activity against HCV; assay type: functional, Hepacivirus hominis
[10] = system: Huh7 (Homo sapiens); test: Inhibition of miR-122 in human Huh7 cells assessed as fold increase at 10 uM by luciferase signal
[11] = Inhibition of miR-210 (unknown origin)
[12] = Effect on pre-miR-210 in human MDA-MB-231 cells assessed as fold increase at 200 nM; assay type: functional
[13] = Effect on pri-miR-210 in human MDA-MB-231 cells assessed as fold increase at 200 nM; assay type: functional
[14] = In vivo inhibition of miR-210 in human MDA-MB-231 cells xenografted with SCID mouse assessed as reduction in protein level under hypoxia condition relative to control; assay type: functional; set-up: scale not given: the % may be the effect or the level left
[15] = Upregulation of GPD1L in human MDA-MB-231 cells assessed as fold increase in expression level; assay type: functional
[16] = In vivo inhibition of miR-210 in human MDA-MB-231 cells xenografted with SCID mouse assessed as reduction in […] level at 20 pmol relative to control; set-up: scale not given: the % may be the effect or the level left
[17] = Inhibition of miR-21 in human HeLa cells assessed as inhibition; assay type: cell-based
[18] = system: HeLa; test: Inhibition of pri-miR-21 in human HeLa cells assessed as reduction in expression level at 10 uM relative to control; assay type: cell-based
[19] = system: MCF7; test: Inhibition of miR-21 in human MCF7 cells assessed as fold increase at 10 uM by luciferase signalling assay; assay type: cell-based
[20] = system: MCF7; test: Inhibition of miR-21 in human MCF7 cells assessed as fold increase in PDCD4 protein level; assay type: cell-based
[21] = system: MCF7; test: Induction of apoptosis human MCF7 cells at 5 uM assessed as fold increase in apoptotic rate; assay type: functional
[22] = Activation of miR-122 (unknown origin) by luciferase assay
[23] = system: HepG2; test: Cytotoxicity against human HepG2 cells assessed as reduction in cell viability measured after 24 hrs at 10 uM relative to control; assay type: toxicity, cell-based; conditions: hepg2, 24 h
[24] = Inhibition of miRNA (unknown origin)
[25] = Inhibition of miRNA (unknown origin) by fluorescence polarization assay
[26] = Inhibition of miR-122 (unknown origin) by luciferase signalling
[27] = Inhibition of pri-miR-122 (unknown origin) at 10 uM relative to control
[28] = Inhibition of myomiRs (unknown origin)
[29] = Inhibition of miR-206 (unknown origin)
[30] = Effect on miR-96 in human MCF7 cells assessed as decrease in expression level at 40 uM relative to control; assay type: functional; set-up: scale not given: the % may be the effect or the level left

N#Cc1c(N2CCCC2)nc(N)c2c(N)nc(N3CCCC3)cc12
Activity [1]: 60% | fold change (FC) [2]: 2 | Activity [3]: 90%

CCn1cc(C(=O)O)c(=O)c2cc(F)c(N3CCNCC3)nc21 [ENOXACIN]
EC50 [4]: 30000 nM | EC50 [5]: 124000 nM

NC[C@@H]1O[C@H](O[C@H]2[C@@H](O)[C@H](O[C@@H]3[C@@H](O)[C@H](N)C[C@H](N)[C@H]3O[C@H]3O[C@H](CN)[C@@H](O)[C@H](O)[C@H]3N)O[C@@H]2CO)[C@H](N)[C@@H](O)[C@@H]1O
fold change (FC) [6]: 1.2

O=C(Nc1ccc2ccccc2c1)c1ccc(Cl)cc1Cl
IC50 [7]: 3000 nM | inhibition [8]: 50% | Activity [9]: 50% | fold change (FC) [10]: 7.7

CN1CCN(c2ccc3nc(-c4ccc5[nH]c(-c6cccc(OCCCC(=O)NCCN=[N+]=[N-])c6)nc5c4)[nH]c3c2)CC1
IC50 [11]: 200 nM | fold change (FC) [12]: 2.6 | fold change (FC) [13]: 3 | Activity [14]: 90% | fold change (FC) [15]: 5 | Activity [16]: 75%

C#CCNC(=O)c1ccc(/N=N/c2ccc(N)cc2)cc1
EC50 [17]: 2000 nM | inhibition [18]: 80%

CN[C@@H]1[C@H](O[C@H]2[C@H](O[C@H]3[C@H](O)[C@@H](O)[C@H](N=C(N)N)[C@@H](O)[C@@H]3N=C(N)N)O[C@@H](C)[C@]2(O)C=O)O[C@@H](CO)[C@H](O)[C@H]1O [STREPTOMYCIN]
fold change (FC) [19]: 1.4 | fold change (FC) [20]: 2 | fold change (FC) [21]: 2

CN(C)CCN1C(=O)c2cccc3cccc(c23)C1=O
EC50 [22]: 3000 nM | Activity [23]: 80%

O=C(O)C1=CC(=C(c2ccc(O)c(C(=O)O)c2)c2ccc(O)c(C(=O)O)c2)C=CC1=O [AURINTRICARBOXYLIC ACID]
IC50 [24]: 470 nM | IC50 [25]: 470 nM

O=S(=O)(c1ccc2c(c1)CCCN2)N1CCC[C@H]2CCCC[C@@H]21
IC50 [26]: 600 nM | inhibition [27]: 90% | Activity [9]: 50% | fold change (FC) [10]: 12.5

COC12C(=O)c3ccccc3C(=O)C1C(c1ccccc1)=C2c1ccc(OC(=O)OC(C)(C)C)c2ncccc12 (configuration not stated)
IC50 [28]: 2500 nM | IC50 [29]: 5000 nM

CN1CCN(c2ccc3nc(-c4cc(C(C)(C)C)c(OCCCC(=O)NCCCN=[N+]=[N-])c(C(C)(C)C)c4)[nH]c3c2)CC1
Activity [30]: 90%
